Reference: PMC3921447, “Homologous and heterologous desensitization of guanylyl cyclase-B signaling in GH3 somatolactotropes” (Cell and Tissue Research, 2013)

Experiments:
[1] = system: Npr2; experiment: Npr2 mRNA expression by qPCR in GH3 cells; format: cell-based, rat; conditions: 100 nM CNP, 24 h; n = 3; Fig. 4a
Protocol: Total RNA was extracted from 1 × 10^6 GH3 cells or from male Sprague Dawley rat pituitaries by using Tri-reagent (Sigma-Aldrich, Poole, UK) and subjected to DNase treatment (Qiagen, Manchester, UK) before generation of first-strand cDNA (Applied Biosystems, Warrington, UK). Polymerase chain reaction (PCR) was performed for a range of targets for 30 cycles by using the primers and conditions published previously (Thompson et al. [2009]). In some instances, GH3 cells were treated with 0 or 100 nM CNP for 24 h prior to RNA extraction. These samples were processed for […] PCR (qPCR) analyses with commercially available rat Npr2 and 18S primer sets (Qiagen, Manchester, UK) under standard SYBR conditions as described previously (Bayol et al. [2010]).
We next examined whether Npr2 or GC-B down-regulation (as determined by a reduction in Npr2 mRNA expression and or GC-B protein expression) mediated the inhibitory effects of sustained CNP exposure. The effect of CNP exposure on the expression of the endogenous Npr2 gene was examined by using qPCR. […]
Fig. 4 CNP fails to alter expression of Npr2 mRNA or GC-B protein in GH3 somatolactotrope cells. a GH3 cells were stimulated with 0 or 100 nM CNP for 24 h prior to extraction of total RNA, cDNA synthesis, and quantitative PCR for endogenous Npr2 expression. […]

[2] = target: T1, GC-A (Rattus norvegicus, UniProt P18910); experiment: Effect of natriuretic peptide pre-treatment on ANP-stimulated (GC-A) cGMP accumulation in GH3 cells; format: cell-based; conditions: 100 nM CNP pre-treatment 6 h, then 100 nM ANP plus 1 mM IBMX 15 min; Fig. 3d; ns, P > 0.05
T1 construct: Evidence of homologous desensitization of endogenous GC-A- and GC-B-mediated signaling in GH3 cells; endogenous in cells; host or cells: GH3 rat somatolactotrope cells
T1 sequence (P18910 29-1057): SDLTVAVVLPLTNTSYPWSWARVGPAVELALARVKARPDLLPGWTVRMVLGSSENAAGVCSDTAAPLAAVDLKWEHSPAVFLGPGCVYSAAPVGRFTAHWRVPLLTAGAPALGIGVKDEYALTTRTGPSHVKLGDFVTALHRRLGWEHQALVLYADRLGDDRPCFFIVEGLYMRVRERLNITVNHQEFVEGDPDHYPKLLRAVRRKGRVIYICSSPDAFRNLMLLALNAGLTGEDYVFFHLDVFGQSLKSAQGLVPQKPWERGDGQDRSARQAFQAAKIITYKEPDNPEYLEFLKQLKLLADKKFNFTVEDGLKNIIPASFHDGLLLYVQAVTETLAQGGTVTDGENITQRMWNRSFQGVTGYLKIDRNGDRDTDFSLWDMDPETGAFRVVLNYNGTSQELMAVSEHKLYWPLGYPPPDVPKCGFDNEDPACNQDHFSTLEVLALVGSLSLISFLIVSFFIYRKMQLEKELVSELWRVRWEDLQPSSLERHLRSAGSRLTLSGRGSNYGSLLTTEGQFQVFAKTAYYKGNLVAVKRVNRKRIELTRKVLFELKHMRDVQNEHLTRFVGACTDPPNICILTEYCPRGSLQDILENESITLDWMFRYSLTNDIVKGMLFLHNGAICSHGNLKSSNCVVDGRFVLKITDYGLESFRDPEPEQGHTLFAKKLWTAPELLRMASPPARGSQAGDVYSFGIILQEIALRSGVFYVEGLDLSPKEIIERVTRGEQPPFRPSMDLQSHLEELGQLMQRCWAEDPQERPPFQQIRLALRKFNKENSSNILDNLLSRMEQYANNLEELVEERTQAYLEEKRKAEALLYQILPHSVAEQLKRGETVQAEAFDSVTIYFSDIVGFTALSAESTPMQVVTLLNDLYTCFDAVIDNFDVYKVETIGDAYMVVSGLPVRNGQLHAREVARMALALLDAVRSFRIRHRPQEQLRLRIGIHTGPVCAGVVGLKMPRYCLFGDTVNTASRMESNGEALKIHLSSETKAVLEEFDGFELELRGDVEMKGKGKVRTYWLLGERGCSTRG
Protocol: Having established that GC-B signaling but not that of GC-A receptors, underwent rapid homologous desensitization, we next examined the effect of prolonged exposure of each receptor to its specific ligand. GH3 cells pre-treated with either ANP or CNP for 0 (control) to 6 h reduced the response to a subsequent 15-min treatment of ANP or CNP (with IBMX). […] The amount of cGMP measured from the 15-min pre-treatment sample was reduced by 39.6 ± 0.002 % (***P < 0.001). This effect was maintained up to the 6-h pre-treatment with CNP, which was reduced by 37.9 ± 7.1 % compared with the control (***P < 0.001).
Fig. 3 Effect of chronic exposure to CNP and ANP on GC-B- and GC-A-dependent cGMP accumulation in GH3 cells. Cells were initially treated with (a) 100 nM CNP or (b) 100 nM ANP in PSS without IBMX for 0 to 6 h. The medium was removed and replaced with 100 nM CNP (a) or 100 nM ANP (b) for 15 min in the presence of 1 mM IBMX. […]
In similar experiments designed to examine the effect of ANP pre-exposure to GC-A activity, a significant reduction in cGMP accumulation was observed within 30 min of ANP pre-treatment (by 28.9 ± 3.1 % compared with the control, *P < 0.05). […] In order to test the receptor specificity of the observed down-regulation of GC-B upon pre-treatment with CNP and of GC-A upon pre-treatment with ANP, the effects of ANP on GC-B and CNP on GC-A desensitization were determined. […]

## CC[C@H](C)[C@@H]1NC(=O)[C@H](CCCNC(=N)N)NC(=O)[C@H](CC(=O)O)NC(=O)[C@H](CC(C)C)NC(=O)[C@H](CCCCN)NC(=O)[C@H](CC(C)C)NC(=O)CNC(=O)[C@H](Cc2ccccc2)NC(=O)[C@@H](NC(=O)CNC(=O)[C@H](CCCCN)NC(=O)[C@H](CO)NC(=O)[C@H](CC(C)C)NC(=O)CN)CSSC[C@@H](C(=O)O)NC(=O)CNC(=O)[C@H](CC(C)C)NC(=O)CNC(=O)[C@H](CO)NC(=O)[C@H](CCSC)NC(=O)[C@H](CO)NC(=O)CNC1=O [CNP, C-type natriuretic peptide]
[1]
  Npr2 mRNA expression: failed to alter Npr2 expression in GH3 cells
[2]
  ANP-stimulated cGMP after CNP pre-treatment vs control: not significantly different from the control samples
